Measurements taken from publication doi:10.1101/2021.03.09.434688v1 (biorxiv, 2021).

Molecular target: T1, PsnB (Plesiocystis pacifica, UniProt A6G4D7)
T1 sequence (A6G4D7 1-314): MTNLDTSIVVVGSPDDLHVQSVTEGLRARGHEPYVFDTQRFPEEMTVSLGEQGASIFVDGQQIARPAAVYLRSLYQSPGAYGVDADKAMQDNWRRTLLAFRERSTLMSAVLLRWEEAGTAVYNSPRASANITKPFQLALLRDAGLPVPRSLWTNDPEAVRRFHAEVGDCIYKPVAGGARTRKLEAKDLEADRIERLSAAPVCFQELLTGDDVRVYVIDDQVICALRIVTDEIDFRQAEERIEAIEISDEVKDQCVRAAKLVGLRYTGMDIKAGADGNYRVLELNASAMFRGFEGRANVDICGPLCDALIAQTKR
T1 sequence (A6GH40 14-38 partner): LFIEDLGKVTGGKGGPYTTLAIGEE
Experiment: X-ray crystal structure of the complex
Assay type: binding
Conditions: complex with minimal precursor PsnA2_14-38 and Mg; nucleotide 5 mM; ATP site

SMILES | X-ray crystal structure of the complex
Nc1ncnc2c1ncn2[C@@H]1O[C@H](COP(=O)(O)OP(=O)(O)O)[C@@H](O)[C@H]1O [ADP] | For PsnB-MP-ADP (7DRM)
Nc1ncnc2c1ncn2[C@@H]1O[C@H](COP(=O)(O)OP(=O)(O)NP(=O)(O)O)[C@@H](O)[C@H]1O [AMPPNP] | PsnB-MP-AMPPNP (7DRN)
